The source of these data is paper PMC6144582, “The Binding of BF-227-Like Benzoxazoles to Human α-Synuclein and Amyloid β Peptide Fibrils” (Molecular Imaging, 2018).

Assay [1] deals with T1, human α-Syn fibrils (Homo sapiens, UniProt P37840).
T1 construct: Human full-length α-Syn (NM_000345) was cloned; made in house; host or cells: Escherichia coli BL21 (D3)
Nature of the assay: Competition binding against 5 nM [3H]BF-227 on α-Syn fibrils. The note with it: for Ki: 5 nM [3H]BF-227, Cheng-Prusoff, geometric mean (low; high errors of the geometric mean); for Ki(Aβ)/Ki(α-Syn): selectivity for α-Syn binding, ratio of Ki on Aβ fibrils to Ki on α-Syn fibrils. Here is the method:
Human full-length α-Syn (NM_000345) was cloned into the ampicillin-resistant Escherichia coli expression vector PET7-7 and transformed into BL21 (D3) strains for expression. The recombinant α-Syn was expressed and purified to ≥95% purity as described previously.[6] The monomeric α-Syn was formulated in 10 mM Tris–HCl, pH 7.6, 50 mM NaCl at 5 mg/mL. For fibril formation, 500 µL of purified α-Syn monomer was subjected to continuous shaking at 1000 rpm in an Eppendorf Thermomixer at 37°C for 7 days. The monomer was removed from fibrils by high-speed centrifugation with a Beckman-Coulter tabletop Optima MAX-XP (Beckman-Coulter, Indianapolis, Indiana) ultra-centrifuge at 600 000g for 40 minutes, followed by 3 PBS/centrifugation wash steps. After each centrifugation step, the supernatant was removed and the concentration of α-Syn in the supernatant was calculated from absorbance at 280 nm. The pellet was resuspended in PBS, and the concentration of fibrils was estimated by subtracting the total amount of α-Syn in the supernatant from all the wash steps and confirmed by BCA assay before use.
(§1) Competition studies were carried out using 5 nM [^3H]BF-227. Experiments were performed in 50 mM Tris–HCl pH 7.5, 150 mM NaCl, and 0.1% bovine serum albumin in a reaction volume of 200 µL. Incubations were initiated with the addition of human α-Syn ([…]) or Aβ1-42 (0.1 μM/well) fibrils at room temperature and terminated 2 hours later by rapid vacuum filtration over Whatman GF/C 96-well Unifilters (Brandel [Gaithersburg, Maryland]) presoaked in cold wash buffer (50 mM Tris–HCl, pH7.4), followed by four 200 µL washes with cold wash buffer. Filters containing bound ligand were mixed with 50 µL Microscint-PS (Perkin-Elmer [Waltham, Massachusetts]) and counted with a MicroBeta2 Scintillation Counter (Perkin Elmer). All data points were performed in triplicate. Values for the saturation binding dissociation constant (KD) and the maximal number of binding sites (Bmax) were determined by fitting the data to the equation Y = Bmax × X/(X + KD) using nonlinear regression analysis. IC50 values were generated from the concentration–response curves using nonlinear regression analysis and converted to Ki values with the Cheng-Prusoff equation.[7] Data analysis was performed with GraphPad Prism version 7.02.
Results are expressed as inhibition constants (Ki, nM) corrected for ligand occupancy.[7] Each value is a geometric mean from the indicated numbers of experiments (n), with the numbers in parentheses indicating the low and high errors of the geometric mean. Also shown are the Log P, tPSA, and CLogP values for these compounds. These can be compared with means for the 5 Aβ imaging agents which can serve as an empirical training set to judge the likely in vivo behavior of new compounds.

Assay [2] has as its target T2, Aβ1-42 fibrils (Homo sapiens, UniProt P05067).
T2 construct: Aβ1-42 peptide 5 mg, Cat #20276-5 (Anaspec, Fremont, California); purchased Anaspec 20276-5
Nature of the assay: Competition binding against 5 nM [3H]BF-227 on Aβ1-42 fibrils. To be noted: 5 nM [3H]BF-227, Cheng-Prusoff; geometric mean (low; high errors of the geometric mean); read-out: Aβ Ki. Here is the method: The clear peptide solution was transferred to a 15 mL conical tube. […] Subsequently, 4 mL of Milli-Q-H2O was added to the conical tube followed by the addition of 125 µL of 1 M Tris–HCl, pH 7.5 with gentle mixing of the solution. The final volume was 5 mL, with the starting peptide concentration at 1 mg/mL. The peptide solution was divided into 5 × 1 mL aliquots with 1.5 mL Eppendorf tubes and incubated for 72 hours at 37°C with shaking at 1000 rpm in an Eppendorf Thermomixer. […] Fibril stock solutions were stored at −80°C.
as §1, with “Experiments” for “Competition studies were carried out using 5 nM [^3H]BF-227. Experiments”, “equation.[7]” for “equation.[7] Data analysis was performed with GraphPad Prism version 7.02.”
Results are expressed as inhibition constants (Ki, nM) corrected for ligand occupancy.[7] Each value is a geometric mean from the indicated numbers of experiments (n), with the numbers in parentheses indicating the low and high errors of the geometric mean. […] These can be compared with means for the 5 Aβ imaging agents which can serve as an empirical training set to judge the likely in vivo behavior of new compounds.

Assay [3] concerns the target synthetic Aβ fibrils. Also on record: method as in PMID 17401091. The note with it: reported value; cited from earlier work.
The target of assay [4] is synthetic Aβ fibrils. Also noted: method as in PMID 19576880. To be noted: reported value; cited from earlier work.
Assay [5] has as its target synthetic α-Syn fibrils. Also noted: method as in PMID 19576880. To be noted: reported value; cited from earlier work.
The test system of assay [6] is Lewy body. Also noted: method as in PMID 19576880. To be noted: high concentration (100 μM); cited from earlier work.
For assay [7], the system named is α-Syn-positive, Aβ-negative dementia with Lewy body human brain homgenates. Also noted: method as in PMID 28826526. The note with it: cited from earlier work.

Where two headings read alike, the source gives them in different places.

T2 sequence (P05067 672-713 limits assumed): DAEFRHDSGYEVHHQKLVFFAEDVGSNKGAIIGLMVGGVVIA

For `COc1cc(/C=C/c2ccc(N)cc2)ccc1/C=C/c1ccc(N)cc1` [BMB, 1,4-bis(paminostyryl)-2-methoxy benzene, reference compound], the Ki in assay [1] was 184 nM; in assay [2], 76 nM.

`CNc1ccc(-c2nc3ccccc3s2)cc1` [BTA-1, reference compound] gave an inhibition constant Ki in assay [1] of 64 nM.

For the compound `C#CCN(C)CCCOc1ccc(Cl)cc1Cl` [Clorgyline, reference compound], the Ki was > 9000 nM in assay [1] and > 5000 nM in assay [2].

As for `CN(C)c1ncc(C=Cc2nc3ccc(OCCF)cc3o2)s1` [Compound 1, 2-(2-[2-dimethylaminothiazol-5-yl]ethenyl)-6-(2-[fluoro]ethoxy)benzoxazole], the inhibition constant (Ki) in assay [1] is 53 nM; in assay [2] it was 12 nM. Besides, in assay [1], the “Ki(Aβ)/Ki(α-Syn)” value is 0.23. Besides, the results for the Kd in assay [3], in assay [4] and in assay [5] were 4.1 nM, 1.31 nM and 9.3 nM, respectively. The “Lewy body fluorescence in histochemical analysis” value in assay [6] is given as “led to Lewy body fluorescence”.

With `CN(C)c1ncc(/C=C/c2nc3ccc(OCCCF)cc3o2)s1` [Compound 2], in assay [1], the Ki amounted to 157 nM and the “Ki(Aβ)/Ki(α-Syn)” value worked out at 0.06. Moreover, in assay [2], the Ki worked out at 9.01 nM.

In the case of `CN(C)c1ncc(/C=C/c2nc3ccc(OCCCCF)cc3o2)s1` [Compound 3], the inhibition constant Ki in assay [1] was 378 nM; in assay [2] it was 31 nM. Also, the “Ki(Aβ)/Ki(α-Syn)” value in assay [1] stood at 0.08.

Regarding `CN(C)c1ncc(/C=C/c2nc3ccc(OCCCCCF)cc3o2)s1` [Compound 4], in assay [1], affinity was put at a Ki of 297 nM and the “Ki(Aβ)/Ki(α-Syn)” value is given as 0.09. Besides, the Ki in assay [2] was 28 nM.

With `CN(C)c1ncc(/C=C/c2nc3ccc(OCCCCCCF)cc3o2)s1` [Compound 5], in assay [1], the Ki amounted to 462 nM and the “Ki(Aβ)/Ki(α-Syn)” value is reported as 0.05. In addition, the inhibition constant Ki in assay [2] turned out to be 23 nM.

For the compound `CN(C)c1ncc(/C=C/c2nc3ccc(OCCCCCCCF)cc3o2)s1` [Compound 6], in assay [1], affinity was put at a Ki of 212 nM and the “Ki(Aβ)/Ki(α-Syn)” value is given as 0.13. Further, the inhibitory constant (Ki) in assay [2] turned out to be 27 nM.

`CN(C)c1ncc(/C=C/c2nc3ccc(OCCOCCF)cc3o2)s1` [Compound 7]: in assay [1], the Ki was found to be 83 nM and the “Ki(Aβ)/Ki(α-Syn)” value was 0.13. Also, the inhibition constant Ki in assay [2] is 11 nM.

On to `CN(C)c1ncc(/C=C/c2nc3ccc(OCCOCCOCCF)cc3o2)s1` [Compound 8], for which, in assay [1], the inhibition constant Ki worked out at 52 nM and the “Ki(Aβ)/Ki(α-Syn)” value stood at 0.25. For the same compound, the inhibitory constant (Ki) in assay [2] is 13 nM.

In the case of `CN(C)c1ncc(/C=C/c2nc3ccc(OCCOCCOCCOCCF)cc3o2)s1` [Compound 9], the Ki is 100 nM in assay [1] and 26 nM in assay [2]. Moreover, the “Ki(Aβ)/Ki(α-Syn)” value in assay [1] amounted to 0.26.

In the case of `CN(C)c1ncc(/C=C/c2nc3ccc(OCCOCCOCCOCCOCCF)cc3o2)s1` [Compound 10], in assay [1], the affinity, expressed as Ki, was 75 nM and the “Ki(Aβ)/Ki(α-Syn)” value was found to be 0.24. Besides, in assay [2], the Ki amounted to 18 nM.

On to `CN(C)c1ncc(/C=C/c2nc3ccc(I)cc3o2)s1` [Compound 11], for which the “Ki(Aβ)/Ki(α-Syn)” value in assay [1] is reported as 0.30. Besides, the inhibition constant Ki in assay [2] is 223 nM.

`CN(C)c1ncc(/C=C/c2nc3cc(I)ccc3o2)s1` [Compound 12]: in assay [1], the affinity corresponds to a Ki of 276 nM and the “Ki(Aβ)/Ki(α-Syn)” value worked out at 0.35. The Ki in assay [2] was 96 nM.

Take `Fc1ccc2nc(/C=C/c3ccccc3)oc2c1` [Compound 13]: the inhibitory constant (Ki) in assay [1] amounted to 328 nM; in assay [2] it was 1250 nM. Further, in assay [1], the “Ki(Aβ)/Ki(α-Syn)” value amounted to 3.8.

Turning to `Fc1ccc2oc(/C=C/c3ccccc3)nc2c1` [Compound 14], in assay [1], affinity was put at a Ki of 238 nM and the “Ki(Aβ)/Ki(α-Syn)” value came to 2.2. Besides, in assay [2], the inhibition constant (Ki) is 528 nM.

`Fc1ccc2nc(/C=C/c3cncs3)oc2c1` [Compound 15]: in assay [1], affinity was put at a Ki of 286 nM and the “Ki(Aβ)/Ki(α-Syn)” value came to 5.1. Further, the Ki in assay [2] is 1450 nM.

On to `CNc1ccc(/C=C/c2ccc(OCCOCCOCCF)nc2)cc1` [Florbetapir (AV-45), reference compound], for which, in assay [1], affinity was put at a Ki of 24 nM and the “Ki(Aβ)/Ki(α-Syn)” value is 0.46. Moreover, the Ki in assay [2] amounted to 12 nM.

As to `CNc1ccc(-c2cc3cc(O)ccc3o2)c(F)n1` [Flutafuranol (NAV 4694), reference compound], the inhibitory constant (Ki) in assay [1] was determined as 32 nM; in assay [2], 42 nM. In addition, the “Ki(Aβ)/Ki(α-Syn)” value in assay [1] amounted to 1.34.

As to `CNc1ccc(-c2nc3ccc(O)cc3s2)cc1F` [Flutemetamol, reference compound], the Ki worked out at 48 nM in assay [1] and 65 nM in assay [2]. The “Ki(Aβ)/Ki(α-Syn)” value in assay [1] came to 1.35.

The compound `CNc1ccc(-c2nc3ccc(O)cc3s2)cc1` [PiB, reference compound] registered an inhibition constant Ki in assay [1] of 55 nM.

Consider `NCCNC(=O)c1ccc(Cl)cc1` [RO-16-6491, reference compound], for which the Ki in assay [1] is > 9000 nM; in assay [2], > 7000 nM.

As for `CN(C)c1ncc(C=Cc2nc3ccc(OCCF)cc3o2)s1` [[^18F]BF-227], the “Binding to α-Syn-positive, Aβ-negative dementia with Lewy body human brain homogenates” value in assay [7] is “failed to bind”.

Regarding `Cc1ccc2c(sc(-c3ccc4c(c3)sc(-c3ccc(N(C)C)cc3)[n+]4C)[n+]2C)c1S(=O)(=O)O` [reference compound], in assay [1], the inhibition constant Ki is > 9000 nM and the “Ki(Aβ)/Ki(α-Syn)” value is listed as ≤0.2. In assay [2], the Ki came to 2150 nM.

The Ki is the dissociation constant of the complex between target and ligand, obtained from inhibition or displacement. One may read the Kd as the concentration at which binding is half-saturated.
